Laboratory results from PMC6056748, “Amsacrine Derivatives Selectively Inhibit Mycobacterial Topoisomerase I (TopA), Impair M. smegmatis Growth and Disturb Chromosome Replication” (Frontiers in Microbiology, 2018).
Read-outs that look alike come from different tables or passages of the source.

Tests used:
MsTopA [1] = target: T1, MsTopA (Mycolicibacterium smegmatis, UniProt A0R5D9); assay: Surface plasmon resonance of MsTopA binding to immobilized DNA; set-up: species or system M. smegmatis; details: for MsTopA affinity for DNA (SPR): 15–90 μM compound, MsTopA 60 nM; for ICB, inhibitory concentration that completely blocks MsTopA binding: 241 bp DNA on chip, inhibitor preincubated with MsTopA
Protocol: Surface plasmon resonance (SPR)
SPR analyses were performed on a BIAcore T200. For the SPR analyses, the biotinylated fragment (241-bp long) was amplified using parA4200 and parS4440_rv_biot oligonucleotides from S. coelicolor chromosome. DNA immobilization on the surface of the sensor chip SA and protein binding analyses were performed according to the procedure described by Strzalka et al.[9]. Prior to binding to the DNA-coated chip, MsTopA (50 nM) in 25 mM NaH2PO4 pH 8.0, 150 mM NaCl and 5% glycerol (binding buffer) was incubated on ice for 40 minutes with amsacrine or its XC derivatives (in 15 - 90 µM concentrations or 1% DMSO for the control experiment). For each compound, the ICB value was estimated as the inhibitor concentration that completely abolished the binding of MsTopA to the DNA-coated chip.

[2] = test system: M. smegmatis strain (JH01), DnaN-EGFP; assay: TLMM: number of DnaN-EGFP foci per cell
Protocol: For time-lapse microscopy, M. smegmatis strains were cultured to the log-phase of growth, then diluted with 7H9 medium supplemented with 10% OADC and 0.05% Tween-80 and loaded into the flow chamber of B04A plates with a CellASIC ONIX flow control system (Merck-Millipore). During the experiment, the cells were continuously supplied with fresh medium supplemented with the inhibitor (at 30–240 μM concentrations) or 1% DMSO in the control experiment. To visualize dead cells, after 15 h of inhibitor treatment cells were washed with propidium iodide at concentration 10 μg/ml for 1 h. The images were taken in 10 min intervals using a Delta Vision Elite Imager equipped with DV Elite CoolSnap HQ2 Camera and SoftWorx software and were subsequently analyzed using ImageJ Fiji suite (http://fiji.sc/Fiji) and R suite (http://www.R-project.org). The analysis of cell cycle and evaluation of particular phases of growth started from the moment of appearance of a single DnaN-EGFP foci (initiation of DNA replication).

[3] = Solubility under microfluidic conditions; type: physicochemical
M. smegmatis mc2155 = assay: Growth analysis (Bioscreen C, log-phase growth rate); type: cell-based; details: for IC50 lower than amsacrine: M. smegmatis growth; for inhibition at 30 µM: log-phase growth rate vs 1% DMSO
E. coli = assay: as above; type: cell-based; details: Escherichia coli; for IC50: growth rate in log-phase, Figure 2B
[4] = test system: M. smegmatis strain (JH01), DnaN-EGFP; assay: TLMM: replisome lifetime and cell cycle phases; details: for Average lifetime of DnaN-EGFP complex (replisome lifetime): 120 μM, control 1% DMSO 130 min; for Phase D+B / Phase C / Complete cell cycle: 120 µM, mean (SD), n = 50; for Phase D+B: 1% DMSO 33 (15); for Phase C: 1% DMSO 129 (15); for Complete cell cycle: 1% DMSO 162 (18)
Protocol: For time-lapse microscopy, M. smegmatis strains were cultured to the log-phase of growth, then diluted with 7H9 medium supplemented with 10% OADC and 0.05% Tween-80 and loaded into the flow chamber of B04A plates with a CellASIC ONIX flow control system (Merck-Millipore). During the experiment, the cells were continuously supplied with fresh medium supplemented with the inhibitor (at 30–240 μM concentrations) or 1% DMSO in the control experiment. […] The images were taken in 10 min intervals using a Delta Vision Elite Imager equipped with DV Elite CoolSnap HQ2 Camera and SoftWorx software and were subsequently analyzed using ImageJ Fiji suite (http://fiji.sc/Fiji) and R suite (http://www.R-project.org). The analysis of cell cycle and evaluation of particular phases of growth started from the moment of appearance of a single DnaN-EGFP foci (initiation of DNA replication).
The calculation of an average time of particular phases of M. smegmatis cell cycle.
Phase C corresponds to chromosome replication. It starts with the appearance of a single DnaN-
EGFP focus (time 0) (green dot), which subsequently splits into two foci.
the termination of DNA replication and cell division and the time after cell division prior to initiation of
replication. The time of complete cell cycle is the sum of C and D+B phases.The data in the table show
the average time of each phase as well as the time of complete M. smegmatis cell cycle in TLMM
experiment (see the material and methods) in control experiment (DMSO) or during treatment with
amsacrine/XC-4 inhibitor.

[5] = test system: M. smegmatis MSZ2 strain producing M. tuberculosis MtTopA; type: cell-based
S. venezuelae = assay: Growth analysis (Bioscreen C, log-phase growth rate); type: cell-based; details: for IC50: growth rate in log-phase, Figure 2B
MsTopA [6] = target: T1, MsTopA; assay: Topoisomerase I activity assay (relaxation of negatively supercoiled pUC19); type: biochemical, M. smegmatis; details: 60 nM MsTopA; for MsTopA inhibition in the screen of amsacrine derivatives (Table S2): 60 μM compound, data not shown; for inhibition at 60 µM: 60 μM inhibitor; for MsTopA activity inhibition over concentration range: concentrations from 15 to 60 μM
Protocol: The amsacrine derivatives were stored at 4°C as 20 mM stock solutions in DMSO. Shortly before the activity assays, the inhibitors were diluted in DMSO to reach working concentration (0.15–0.6 mM). An 18 μl mixture containing 120 ng MsTopA, 25 mM NaH2PO4 at pH 8.0, 150 mM NaCl, 5% glycerol, 10 mM MgCl2 and a tested inhibitor in a final concentration of 15, 30, or 60 μM was incubated for 30 min on ice. To start the reaction, 2.0 μl (140 ng) of negatively supercoiled pUC19 plasmid were added to the mixture and incubated for 15 min at 37°C in the presence of 60 nM MsTopA. The reaction was stopped by adding 1.5 μl of 0.5 M EDTA. DNA was resolved in 0.8% agarose in TAE buffer at 140 V for 3 h at room temperature. Topoisomers distribution was visualized by ethidium bromide staining for 30 min at room temperature. Subsequently, the fluorescence signal of supercoiled plasmid and the relaxed topoisomers was calculated using ImageJ Fiji suite (http://fiji.sc/Fiji). To determine the efficiency of MsTopA inhibition, we calculated the fraction of total plasmid that remained supercoiled after the reaction.

[7] = test system: M. smegmatis (JH01 strain); assay: Propidium iodide staining of dead cells (TLMM); details: 120 μM, after 15 hours of exposure
MsTopA [8] = target: T1, MsTopA; assay: MsTopA inhibition in PI, NI and PN order-of-addition assays; type: biochemical, M. smegmatis; details: 60 μM inhibitor, 60 nM MsTopA
Protocol: In the inhibition assays used to test the effect of inhibitor binding to the enzyme, DNA or the enzyme-DNA complex (PI—protein-inhibitor binding, NI—nucleic acid-inhibitor binding, or PNI—protein-nucleic acid binding) the complete reaction mixtures (as above) without magnesium ions and one of the reaction components (substrate, enzyme or inhibitor in the PI, NI, and PNI assays, respectively) were preincubated for 30 min on ice. Subsequently, the reactions were started by adding magnesium chloride and the missing component: negatively supercoiled pUC19 plasmid, MsTopA protein or the particular inhibitors. The reactions were performed for 5 min at 37°C and stopped by adding 1.5 μl of 0.5 M EDTA. Topoisomers were resolved and analyzed according to the procedure described above.

[9] = Mycolicibacterium smegmatis, MC2155
[10] = Mycolicibacterium smegmatis, MC2155, M. smegmatis, Figure S4, read-out: IC50 (growth inhibition fitted to a sigmoidal model)
[11] = Mycolicibacterium smegmatis, MC2155, growth rate in log-phase, Figure 2B, read-out: IC50 M. smegmatis

T1 sequence (A0R5D9 whole entry): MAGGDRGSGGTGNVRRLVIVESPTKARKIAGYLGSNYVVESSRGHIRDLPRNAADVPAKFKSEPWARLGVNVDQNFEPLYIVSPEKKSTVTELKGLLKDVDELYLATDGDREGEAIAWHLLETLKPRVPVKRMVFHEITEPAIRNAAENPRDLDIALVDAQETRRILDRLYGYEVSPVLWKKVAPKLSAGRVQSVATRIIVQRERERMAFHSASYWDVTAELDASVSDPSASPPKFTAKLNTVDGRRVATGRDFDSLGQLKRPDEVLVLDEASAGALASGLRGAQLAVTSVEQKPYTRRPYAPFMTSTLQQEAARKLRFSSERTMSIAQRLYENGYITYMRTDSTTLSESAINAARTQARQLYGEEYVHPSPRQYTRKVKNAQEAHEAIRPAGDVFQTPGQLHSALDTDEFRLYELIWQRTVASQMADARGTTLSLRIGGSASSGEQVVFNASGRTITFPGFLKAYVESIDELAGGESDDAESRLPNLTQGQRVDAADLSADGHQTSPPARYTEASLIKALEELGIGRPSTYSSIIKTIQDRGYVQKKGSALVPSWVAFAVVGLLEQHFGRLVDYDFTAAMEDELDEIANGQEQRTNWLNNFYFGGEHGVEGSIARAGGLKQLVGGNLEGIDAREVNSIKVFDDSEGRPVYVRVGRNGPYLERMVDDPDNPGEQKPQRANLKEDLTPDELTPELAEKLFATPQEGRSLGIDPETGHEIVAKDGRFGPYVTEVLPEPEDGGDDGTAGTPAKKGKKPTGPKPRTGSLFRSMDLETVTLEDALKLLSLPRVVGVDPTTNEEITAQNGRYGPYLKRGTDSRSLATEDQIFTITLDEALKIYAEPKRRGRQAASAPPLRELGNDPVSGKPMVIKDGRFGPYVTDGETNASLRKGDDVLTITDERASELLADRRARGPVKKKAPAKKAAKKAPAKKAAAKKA

Compound | MsTopA affinity for DNA (SPR) (MsTopA [1]) | ICB, inhibitory concentration that completely blocks MsTopA binding (MsTopA [1]) [µM] | Percentage of cells with more than two DnaN-EGFP foci ([2]; 120 μM) | Percentage of cells with no DnaN-EGFP focus ([2]; 120 μM) | IC50 lower than amsacrine (M. smegmatis mc2155) | inhibition at 30 µM (M. smegmatis mc2155; [9]) [%] | IC50 (M. smegmatis mc2155; [10]) [µM] | IC50 (M. smegmatis mc2155; [11]) [µM] | IC50 (E. coli) [µM] | Average lifetime of DnaN-EGFP complex (replisome lifetime) [4] | Difference in growth inhibition between wild-type M. smegmatis and MSZ2 strain producing MtTopA [5] | S. venezuelae growth inhibition (S. venezuelae; 60 μM) | IC50 (S. venezuelae; Streptomyces venezuelae) [µM] | MsTopA inhibition in the screen of amsacrine derivatives (Table S2) (MsTopA [6]) | inhibition at 60 µM (MsTopA [6]) [%] | MsTopA activity inhibition over concentration range (MsTopA [6]) | Phase D+B [4] | Phase C [4] | Inhibitory effect when added to the preformed MsTopA-DNA complex (PN assay) (MsTopA [8]) | other results
COc1cc(NS(=O)(=O)c2ccc([N+](=O)[O-])cc2)ccc1Nc1c2ccccc2nc2ccccc12 [XC-3] | decrease in enzyme affinity for DNA | 15 | 13.4–19.1% | 13.8–18.3% | 30–40% | 55 to 60 | 26.8 | 26 | 78 | slightly increased | did not observe any differences in growth inhibition | much lesser extent than amsacrine | > 90 | efficiently inhibited MsTopA activity | 73 | strongly inhibit MsTopA activity at concentrations >30 μM |  |  |  | Solubility under microfluidic conditions [3]: poor solubility
COc1cc([C@@H]2c3cc4c(cc3[C@@H](O[C@@H]3O[C@@H]5CO[C@@H](C)O[C@H]5[C@H](O)[C@H]3O)[C@H]3COC(=O)[C@H]23)OCO4)cc(OC)c1O [etoposide, reference compound] |  |  |  |  |  |  |  |  |  |  |  |  |  |  |  |  |  |  |  | MsTopA inhibition (MsTopA [6]; etoposide 0.1 - 2.0 mM): did not observe MsTopA inhibition
COc1cc(NS(C)(=O)=O)ccc1Nc1c2ccccc2nc2ccccc12 [Amsacrine, amsacrine] | decrease in enzyme affinity for DNA | 90 | 27.6% | 26.1% |  | 20 to 30 | 40 | 41 | > 90 | slightly increased | did not observe any differences in growth inhibition |  | 47 |  | 64 | strongly inhibit MsTopA activity at concentrations >30 μM | 40 (21) min | 154 (32) min |  | Percentage of cells with more than two DnaN-EGFP foci ([2]; 240 μM): 6.2%; Percentage of cells with no DnaN-EGFP focus ([2]; 240 μM): 48%; inhibition at 60 µM (M. smegmatis mc2155; Mycolicibacterium smegmatis, MC2155, 60 μM): ≤ 80%; inhibition at 60 µM (E. coli; read-out: E. coli growth inhibition): 32%; Complete cell cycle [4]: 194 (36) min; Complete cell cycle ([4]; listed as amsacrine): only slightly; Fraction of dead cells (propidium iodide) [7]: 12%; inhibition at 60 µM (S. venezuelae; Streptomyces venezuelae, 60 μM): ≤ 80%
COc1cc(NS(=O)(=O)c2ccc(Cl)cc2)ccc1Nc1c2ccccc2nc2ccccc12 [XC-2] | decrease in enzyme affinity for DNA | 30 | 13.4–19.1% | 13.8–18.3% |  | 20 to 30 | 56 |  | > 90 | slightly increased | did not observe any differences in growth inhibition | much lesser extent than amsacrine | 85 | efficiently inhibited MsTopA activity | 63 | strongly inhibit MsTopA activity at concentrations >30 μM |  |  | notably weaker | 
COc1cc(NS(=O)(=O)c2ccc(C)cc2)ccc1Nc1c2ccccc2nc2ccccc12 [XC-4] | decrease in enzyme affinity for DNA | 15 | 4.6% |  | 30–40% | 55 to 60 | 27 | 28 | 86 | 220 min | did not observe any differences in growth inhibition | much lesser extent than amsacrine | > 90 | efficiently inhibited MsTopA activity | 80 | strongly inhibit MsTopA activity at concentrations >30 μM | 70 (38) min | 240 (51) min |  | Percentage of cells with more than two DnaN-EGFP foci ([2]; 30 μM): 19.3%; DnaN-EGFP lifetime ([4]; 30 μM, compared with 120 μM XC-4): shortened the DnaN-EGFP lifetime
COc1cc(NS(=O)(=O)c2ccccc2)ccc1Nc1c2ccccc2nc2ccccc12 [XC-1] | decrease in enzyme affinity for DNA | 60 | 13.4–19.1% | 13.8–18.3% |  | 20 to 30 | 55.4 | 58 | > 90 | slightly increased | did not observe any differences in growth inhibition | much lesser extent than amsacrine | > 90 | efficiently inhibited MsTopA activity | 73 | strongly inhibit MsTopA activity at concentrations >30 μM |  |  | notably weaker | 
